Results taken from US8153784B2, “Imaging of enzyme activity” (The General Hospital Corporation, priority 2004, dated 2012).

Assays:
[1] = target: T1, horseradish peroxidase (HRP) (Armoracia rusticana, UniProt P00433); test: HRP-mediated oligomerization of 1Gd^3+ and 2Gd^3+: relaxivity, MALDI-MS; assay type: biochemical; set-up: purchased Sigma; settings: for increase in relaxivity in the presence of peroxidase: 96-well plate image, 4 units HRP, DPBS; for increase in [r1p]: 0.47T and 40° C.
T1 sequence (P00433 31-338): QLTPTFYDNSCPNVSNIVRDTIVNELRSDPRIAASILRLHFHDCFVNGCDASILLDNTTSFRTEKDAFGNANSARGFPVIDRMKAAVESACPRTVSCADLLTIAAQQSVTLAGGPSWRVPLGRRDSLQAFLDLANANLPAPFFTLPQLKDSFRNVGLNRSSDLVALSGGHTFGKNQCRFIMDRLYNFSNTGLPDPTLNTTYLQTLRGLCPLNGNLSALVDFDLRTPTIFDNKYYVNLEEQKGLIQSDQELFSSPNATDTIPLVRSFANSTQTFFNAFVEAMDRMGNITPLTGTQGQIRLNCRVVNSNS
Method: (§1) Relaxation times at 0.47 T was obtained on a Bruker NMS-120 Minispec spectrometer using an inversion recovery sequence, with a TR=5T1, and 15 TI points evenly spaced up to 5T1.
(§2) Relaxation times at 1.5 T was measured on a 1.5 T GE Excite MR scanner utilizing an inversion recovery sequences with TR=2000 ms, TI=50, 75, 100, 150, 200, 250, 300, 350, 400, 500, 625, 750, 1000 ms. A fixed-size region of interest was drawn to obtain the signal intensity of the samples.
(§3) The data at 0.47 T and 1.5 T were fitted to the equation Ix=I0*(1−2e^[…]) to obtain T1, where I is the signal obtained at a certain time point TI, with I0 (total signal or magnetization) and T1 being fitted values.
Horseradish peroxidase was purchased from Sigma as a lyophilized powder that was dissolved in PBS buffer (4 mg/mL) and its activity was measured using substantially the same the methods described by Klebanoff, S. J.; Waltersdorph, A. M.; Rosen, H. Meth Enzymol. 1984 Vol. 105, p 399-403.
Oligomerization of compounds 1Gd^3+ and 2Gd^3+ was achieved by incubating the desired solution (0.5 mL) of monomer with an excess of H2O2 3% (2 μL) and HRP (1 μg≈4 Units) for 1 hour at 40° C. Both T1 and T2 were measured at two different field strengths: 0.47T and 1.5T, this last one using a clinical magnet (1.5 T Signa, GE).
(§4) The relaxivities of various polymerized products were measured using a minimum of four different gadolinium complex concentrations ranging from 2.5 mM to 0.01 mM. Horseradish peroxidase (HRP) was used in the proof-of-the-principle experiments. As used herein, the descriptors 1Gd^3+ and 2Gd^3+ refer to Gd^3+-chelated compounds 1 and 2, respectively. The synthesis of 1Gd^3+ and 2Gd^3+ are described in the Examples.

[2] = Relaxivity of monomeric Gd complexes without enzyme; assay type: physicochemical; settings: for r1p (0.47T, 40°) / r1p (1.5T, 25°): no HRP
Method: Stock solutions of compounds 1Gd and 2Gd were prepared by dissolving the corresponding complexes in DPBS buffer solution (pH 7.4) and were kept at −4° in the dark. Every stock solution was titrated by means of ICP-MS (Elemental Research Inc.).
as §1, §2, §3, §4

Compound	increase in relaxivity in the presence of peroxidase [1]	increase in [r1p] ([1]; HRP)	increase in relaxivity ([1]; HRP, 1.5T clinical MRI unit at 25°)	r1p (0.47T, 40°) ([2]; H2O pH = 4.8)	r1p (0.47T, 40°) ([2]; PBS pH = 7.4)	r1p (1.5T, 25°) ([2]; PBS pH = 7.4)	increase in relaxivity ([1]; HRP, 1.5T, 25°, concentrations below 0.5 mM used for fitting)	minimum increase in relaxivity ([1]; HRP, 1.5T, 25°, predicted from the obtained data)	minimum relaxivity increase ([1]; pH=7.4 (PBS buffer), 0.47T, 'in an embodiment', enzyme not stated)	r1 ([2]; well plate at 1.5T, pH 7.2, no enzyme (row 1))
O=C([O-])CN(CCN(CC(=O)[O-])CC(=O)NCCc1ccc(O)cc1)CCN(CC(=O)[O-])CC(=O)NCCc1ccc(O)cc1.[Gd+3] [1Gd^3+]	70%	3.7 fold	1.7 fold	4.6 mM⁻¹ s⁻¹	~4.3 mM⁻¹ s⁻¹	5.3 mM⁻¹ s⁻¹	–	–	–	–
O=C([O-])CN(CCN(CC(=O)[O-])CC(=O)NCCc1c[nH]c2ccc(O)cc12)CCN(CC(=O)[O-])CC(=O)NCCc1c[nH]c2ccc(O)cc12.[Gd+3] [2Gd^3+]	30%	2.4 fold	–	4.5 mM⁻¹ s⁻¹	~4.3 mM⁻¹ s⁻¹	5.1 mM⁻¹ s⁻¹	1.4 fold	≥ 30%	≥ 40%	4.7 mM⁻¹ s⁻¹
